In US10036047B2, “Methods for hydroxylating phenylpropanoids” (University of Georgia Research Foundation, Inc., priority 2013, dated 2018):
Where “and” joins values, the source holds several entries; their conditions need not be identical. Equal values may be shown once. Read-outs that look alike come from different tables or passages of the source.

Key:
HpaBC [1] = biological target: T1, HpaBC (Escherichia coli, UniProt Q57160); test: HpaBC substrates screening: feeding of E. coli strain over-expressing HpaBC; format: cell-based; settings: 200 mg/L substrate, additional 10 hour incubation
T1 construct: expressed in transfected cells; host or cells: E. coli strain harboring pZE-HpaBC
Protocol: The E. coli strain harboring pZE-HpaBC was pre-inoculated into LB liquid medium containing ampicillin (100 μg/ml) and grown overnight at 37° C. Then 200 μl of the inoculum was transferred into 20 ml of fresh M9Y medium. The E. coli cells were grown at 37° C. till the OD600 values reached around 0.6 and then transferred to 30° C. and induced by 0.5 mM IPTG.
As the initial step towards examining the activity, we constructed a high-copy number plasmid co-expressing hpaB and hpaC (pZE-HpaBC) and introduced it into E. coli. The resulting strain was cultivated and induced with IPTG for enzyme expression for 3 hours, after which 200 mg/L of substrate was added into the cultures. After additional 10 hour incubation, we analyzed the cell-free broth by HPLC. […] We further used naringenin to explore the substrate tolerance limit of HpaBC. […] The three new peaks were collected from HPLC for mass spectrum analysis.
T1 sequence (Q57160 whole entry): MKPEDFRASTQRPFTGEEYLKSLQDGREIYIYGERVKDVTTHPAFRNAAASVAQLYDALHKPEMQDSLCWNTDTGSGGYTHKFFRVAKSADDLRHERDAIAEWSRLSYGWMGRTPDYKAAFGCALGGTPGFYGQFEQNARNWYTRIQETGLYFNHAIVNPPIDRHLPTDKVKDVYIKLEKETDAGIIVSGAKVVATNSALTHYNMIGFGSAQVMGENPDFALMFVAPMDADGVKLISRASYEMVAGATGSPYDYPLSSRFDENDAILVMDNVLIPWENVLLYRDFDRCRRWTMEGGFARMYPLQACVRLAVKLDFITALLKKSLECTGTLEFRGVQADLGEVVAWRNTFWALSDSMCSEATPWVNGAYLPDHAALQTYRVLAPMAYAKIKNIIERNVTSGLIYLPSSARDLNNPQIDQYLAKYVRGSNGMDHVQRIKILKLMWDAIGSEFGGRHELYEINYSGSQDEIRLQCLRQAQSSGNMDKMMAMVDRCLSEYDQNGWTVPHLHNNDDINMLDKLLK

HpaBC [2] = biological target: T2, HpaBC (Escherichia coli, UniProt Q57160); format: biochemical; settings: for kcat: kcat=Vmax/[E]
T2 sequence (Q57160 2-520): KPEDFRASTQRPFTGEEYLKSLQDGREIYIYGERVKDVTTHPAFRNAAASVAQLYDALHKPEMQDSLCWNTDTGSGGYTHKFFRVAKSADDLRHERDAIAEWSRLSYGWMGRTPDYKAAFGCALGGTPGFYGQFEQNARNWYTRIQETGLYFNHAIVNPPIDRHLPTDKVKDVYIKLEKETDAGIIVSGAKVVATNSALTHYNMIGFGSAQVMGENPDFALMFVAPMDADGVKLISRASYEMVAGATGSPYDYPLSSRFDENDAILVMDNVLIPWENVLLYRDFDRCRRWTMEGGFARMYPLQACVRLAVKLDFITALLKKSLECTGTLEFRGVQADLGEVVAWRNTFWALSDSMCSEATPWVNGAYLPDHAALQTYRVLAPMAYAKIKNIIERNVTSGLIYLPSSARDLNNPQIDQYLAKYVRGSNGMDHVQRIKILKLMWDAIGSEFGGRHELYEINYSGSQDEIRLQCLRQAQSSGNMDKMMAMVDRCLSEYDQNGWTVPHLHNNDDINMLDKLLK
Protocol: The E. coli strain was transformed with pZE-His7HpaB and pZE-His7HpaC separately. The fresh transformants were pre-inoculated in LB medium containing 100 μg/ml ampicillin and grown at 37° C. aerobically overnight. In the following day, the pre-inoculums were transferred into 50 ml of fresh LB medium at a ratio of 1:100. The cultures were cultivated at 37° C. till the OD600 values reached about 0.6 and then induced by 0.5 mM IPTG. […] The BCA kit (Pierce Chemicals) was used to estimate protein concentrations. […] The HpaBC enzyme assays were carried out according to the protocol described by Louie et al. with minor modifications (Louie et al., 2003. Biochemistry (Mosc) 42(24):7509-17). The 1 ml reaction system contains KPi Buffer (20 mM, pH=7.0), FAD (10 μM), NADH (1 mM), HpaB (0.5 μM), HpaC (0.5 μM), substrates (from 10 to 1000 μM). […] The reaction rates were calculated according to the product formation and substrate consumption, which were measured by HPLC. Apparent kinetic parameters were determined by non-linear regression of the Michaelis-Menten equation using OriginPro8™.
We further investigated and compared the kinetic parameters of HpaBC towards its native substrate 4HPA and the 3 non-native substrates. To do these, a multi-histidine tag was fused to the N-terminus of HpaB and HpaC, which were subsequently over-expressed and purified from E. coli. The enzyme complex was reconsituted in vitro for enzyme assays (FIG. 5).

HpaBC [3] = biological target: T1, HpaBC; test: Whole-cell biocatalysis with E. coli cells over-expressing HpaBC; format: cell-based; settings: for whole cell bioconversion of substrate into hydroxylated product: 500 mg/L substrate, about 3.3 g/L DCW, in 3 h
Protocol: The E. coli strain harboring pZE-HpaBC was first cultivated in 50 ml LB liquid medium at 37° C. till OD600 values reached 0.6. Then the cells were transferred to 30° C. and induced with 0.5 mM IPTG for additional 6 hours. After that, cells were harvested, re-suspended in 15 ml M9Y medium (0D600=9.6), and incubated in a rotary shaker at 300 rpm. […] When the substrate concentrations fell below 0.5 g/L, additional 1 g/L substrates were supplemented. […] Samples were taken every few hours and analyzed by HPLC.
Whole-cell biocatalysis is an efficient and economical way to scale up enzyme-catalyzed reactions.

HpaBC [4] = biological target: T1, HpaBC; settings: from p-coumaric acid; cited from earlier work
[5] = substrate: O=c1ccc2ccc(O)cc2o1; test: purified protein, by the assay type; settings: other: apparent, HpaB 0.5 μM, HpaC 0.5 μM, pH 7.0, 30° C.
[6] = substrate: Oc1ccc(/C=C/c2cc(O)cc(O)c2)cc1; test: purified protein, by the assay type; settings: other: apparent, HpaB 0.5 μM, HpaC 0.5 μM, pH 7.0, 30° C.

For `O=C1C[C@@H](c2ccc(O)cc2)Oc2cc(O)cc(O)c21` [naringenin], the “substrate consumption in culture (HPLC)” value (HpaBC [1]) was “majority of naringenin was left unconverted” and the “activity of HpaBC towards substrate” value (HpaBC [2]; kinetic parameters not determined) was “low activity”.

With `O=c1ccc2ccc(O)cc2o1` [Umbelliferone, umbelliferone] the “substrate consumption in culture (HPLC)” value (HpaBC [1]) was “completely consumed”, the “whole cell bioconversion of substrate into hydroxylated product” value (HpaBC [3]) was “completely converted” and the “whole-cell conversion efficiency relative to resveratrol” value (HpaBC [3]; umbelliferone vs resveratrol) was “about 3 fold”. It also gave a kcat (HpaBC [2]; apparent, pH 7.0, 30° C.) of 0.0667 s⁻¹.

For `O=C(O)/C=C/c1ccc(O)c(O)c1` [caffeic acid], the “caffeic acid production titer” value (HpaBC [4]) is listed as 3.82 g/L and 21.2 mM.

For `O=C(O)Cc1ccc(O)cc1` [4-HPA, 4-hydroxyphenylacetate, reference compound], the Km (HpaBC [2]; apparent, HpaB 0.5 μM, HpaC 0.5 μM, pH 7.0, 30° C.) was 18.4 µM, the kcat (HpaBC [2]; apparent, pH 7.0, 30° C.) was 1.08 ± 0.015 s⁻¹ and the kcat (HpaBC [2]; apparent, pH 7.0, 30° C., listed as 4HPA) was 1.08 s⁻¹.

For `Oc1ccc(/C=C/c2cc(O)cc(O)c2)cc1` [Resveratrol, 3,5,4′-trihydroxy-trans-stilbene], the “substrate consumption in culture (HPLC)” value (HpaBC [1]) was “completely consumed”, the “whole cell bioconversion of substrate into hydroxylated product” value (HpaBC [3]) was “completely converted” and the kcat (HpaBC [2]; apparent, pH 7.0, 30° C.) was 0.0933 s⁻¹.

In the case of `O=c1ccc2cc(O)c(O)cc2o1` (single isomer, unassigned) [esculetin], the maximum product titer (HpaBC [3]; end of 18 h, fed substrate, 1.5 mM ascorbic acid) is reported as 2.7 g/L and 15.5 mM and the “highest hydroxylation rate (product formation)” value (HpaBC [3]; initial 2 h, 1.5 g/L initial substrate) is reported as 298.1 μM/h/OD.

With `O=C1C[C@@H](c2ccc(O)c(O)c2)Oc2cc(O)cc(O)c21` (single isomer, unassigned) [eriodictyol] the product generated (HpaBC [3]; 150 mg/L naringenin fed, 10 h) was 16.7 mg/L and 58 μM.

B1: HpaBC (Escherichia coli) (protein)
chain: T2 sequence (Q57160 2-520)
With B1 the Km [5] was 262.2 µM, the kcat [5] was 0.0667 s⁻¹ and the kcat/Km [5] was 254 M⁻¹ s⁻¹. It also gave a Km [6] of 145.1 µM, a kcat [6] of 0.0933 s⁻¹ and a kcat/Km [6] of 643 M⁻¹ s⁻¹.
